Our source for the IC50 values is patent publication US20170291905A1, “ARGININE […] INHIBITORS AND USES THEREOF” (Epizyme, Inc., priority 2014, published 2017).

For orientation: pIC50 means −log10 of the IC50, conventionally taken in molar units.

Molecules are shown by their SMILES. pIC50: −log10 of the molar value.

The assay deals with full-length human PRMT6 (Flag- and His-tagged) (Homo sapiens, UniProt Q96LA8). The assay is described as follows: PRMT6 biochemical assay (3H-SAM Flashplate, histone H4 36-50 K44me1 peptide). The following applies: 1 nM PRMT6, 30 min preincubation, 75 nM peptide. Put shortly: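 Flag/His-tagged full-length PRMT6 (1 nM) pre-incubated 30 min RT with compound in 20 mM Bicine pH 7.6, then given 200 nM 3H-SAM, 250 nM cold SAM and 75 nM biotinylated H4 36-50 K44me1 peptide. Methylated peptide captured on streptavidin Flashplates and counted; % inhibition versus DMSO and 1 mM SAH controls, fitted to 3- or 4-parameter curves.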
full-length human PRMT6 (Flag- and His-tagged), sequence (Q96LA8 with tags, fused parts or gaps): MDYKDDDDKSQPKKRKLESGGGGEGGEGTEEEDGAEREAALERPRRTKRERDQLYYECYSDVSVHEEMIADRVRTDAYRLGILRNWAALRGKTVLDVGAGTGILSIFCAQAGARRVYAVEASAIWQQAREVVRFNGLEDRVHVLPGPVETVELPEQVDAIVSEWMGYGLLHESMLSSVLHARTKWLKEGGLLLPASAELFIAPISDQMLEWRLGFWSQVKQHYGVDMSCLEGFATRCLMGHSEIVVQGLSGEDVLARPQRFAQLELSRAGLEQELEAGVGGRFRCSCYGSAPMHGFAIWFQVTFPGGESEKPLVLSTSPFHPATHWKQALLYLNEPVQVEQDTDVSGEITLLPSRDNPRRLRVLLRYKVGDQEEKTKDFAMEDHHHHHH
As for `CNCCN(C)Cc1c[nH]nc1C1CCC(COC)(COCC2CCOCC2)CC1` (stereo not drawn) [compound 45], the pIC50 is 7.27. In turn, `CNCCN(C)Cc1c[nH]nc1C1CCC(COCC2CC2)(COCC2CC2)CC1` [compound 41, N1-((3-(4,4-bis((cyclopropylmethoxy)methyl)cyclohexyl)-1H-pyrazol-4-yl)methyl)-N1,N2-dimethylethane-1,2-diamine] showed a pIC50 of 8.16.

Turning to `CN(C)CCN(C)Cc1c[nH]nc1[C@H]1CC[C@]2(CC1)CC(C)(C)CO2` [compound 43, N1-((3-((5r,8r)-3,3-dimethyl-1-oxaspiro[4.5]decan-8-yl)-1H-pyrazol-4-yl)methyl)-N1,N2,N2-trimethylethane-1,2-diamine], the pIC50 was 6.54. For `CCC1(CC)C[C@]2(CC[C@@H](c3n[nH]cc3CN(C)CCNC)CC2)NC1=O` [compound 48, (5r,8r)-3,3-diethyl-8-(4-((methyl(2-(methylamino)ethyl)amino)methyl)-1H-pyrazol-3-yl)-1-azaspiro[4.5]decan-2-one] the value was 7.13; for `CNCCN(C)Cc1c[nH]nc1C1CCC(CO)(CO)CC1` [compound 44, (4-(4-((methyl(2-(methylamino)ethyl)amino)methyl)-1H-pyrazol-3-yl)cyclohexane-1,1-diyl)dimethanol], 7.67. Compound `CN(C)CCN(C)Cc1c[nH]nc1[C@H]1CC[C@@]2(CC1)CC(C)(C)CO2` [compound 42, N1-((3-((5S,8S)-3,3-dimethyl-1-oxaspiro[4.5]decan-8-yl)-1H-pyrazol-4-yl)methyl)-N1,N2,N2-trimethylethane-1,2-diamine] showed a pIC50 of 7.04. On to `CCOCCOCC1(COCCOCC)CCC(c2n[nH]cc2CN(C)CCNC)CC1` [compound 39, N1-((3-(4,4-bis((2-ethoxyethoxy)methyl)cyclohexyl)-1H-pyrazol-4-yl)methyl)-N1,N2-dimethylethane-1,2-diamine], for which the negative-log IC50 (pIC50) was 7.38. Compound `CCC1(CC)C[C@]2(CC[C@H](c3n[nH]cc3CN(C)CCNC)CC2)NC1=O` [compound 47, (5s,8s)-3,3-diethyl-8-(4-((methyl(2-(methylamino)ethyl)amino)methyl)-1H-pyrazol-3-yl)-1-azaspiro[4.5]decan-2-one] gave a negative logarithm of the IC50 (pIC50) of 7.80. Against the preceding compound, the pIC50 is 0.42 log units higher. With `CNCCN(C)Cc1c[nH]nc1C1=CCC2(CC1)CC(C)(C)CO2` (stereo not drawn) [compound 46, N1-((3-(3,3-dimethyl-1-oxaspiro[4.5]dec-7-en-8-yl)-1H-pyrazol-4-yl)methyl)-N1,N2-dimethylethane-1,2-diamine], the pIC50 is 7.22. Under `CC[C@H]1CC[C@@H](c2n[nH]cc2CN(C)CCNC)CC1` [compound 1] stands 7.99; under `CNCCN(C)Cc1ccnn1[C@H]1CC[C@@]2(CC1)CC(C)(C)CO2` [compound 49, N1-((1-((5s,8s)-3,3-dimethyl-1-oxaspiro[4.5]decan-8-yl)-1H-pyrazol-5-yl)methyl)-N1,N2-dimethylethane-1,2-diamine], 6.89; under `CNCCN(C)Cc1c[nH]nc1C1CCC(COCCC2CCOCC2)(COCCC2CCOCC2)CC1` [compound 40], 7.43.
